Results from patent US4048325A, “Low toxicity method of inhibiting sickling of sickle erythrocytes” (The United States of America as represented by the United …, priority 1976, dated 1977).
Like-named read-outs stand apart in the source and are kept apart here.

Columns and labels:
sickle erythrocytes [1] = experiment: in vitro sickling of sickle erythrocytes after amidination; format: cell-based, human
Method: (§1) Cells were washed with Krebs-Henseleit Buffer (pH 7.4) to remove non-erythrocyte blood elements and resuspended in the same medium to a final hematocrit of 20-40%. Erythrocyte suspensions (4% hematocrit) were incubated in KHB (pH 8.5) containing freshly dissolved EA (1-10 mM). After incubation at room temperature (20°-22°) for 30 min, the cells were washed twice with KH buffer (pH 7.4) and resuspended either in the original plasma (40% hematocrit) for analysis of sickling or in other solutions as described below. To amidinate under anoxia the cells were equilibrated with nitrogen in a tonometer until no oxygen could be detected polarographically. Imidates were added in the dry state to anaerobic cell suspensions. Following treatment, the suspensions were diluted 1:1 with 0.1M Tris-acetate--0.15M NaCl buffer (pH 6.0) to quench amidination, and the cells washed as described above.
The cells were deoxygenated with freshly prepared sodium metabisulfite, fixed with 10% formaldehyde, and examined microscopically. Hypoxic conditions: Cell suspensions were deoxygenated by equilibration with 3% oxygen. Five hundred cells were conted to ascertain the extent of sickling.

sickle erythrocytes [2] = conditions: Lubin et al 1975; cited from earlier work
sickle erythrocytes [3] = experiment: net potassium leak which accompanies sickling; format: cell-based, human
NADH oxidase = experiment: electron transport: NADH oxidase of mitochondrial inner membranes; format: biochemical; conditions: for effect of treatment on NADH oxidase, in words: at comparable levels of amidination
Description: (§2) When compared to bifunctional imidates, monoimidates have major advantages as therapeutic agents for the treatment of sickle cell disease. One important difference between the two classes of reagents is their relative effect on enzyme activity. […] The results as shown, respectively in Table II and FIG. 2. To facilitate a comparison of imidate action, effects were related to extent of amidination as measured by percent amino group decrease rather than the absolute reagent concentration.

ascorbate-TMPD oxidase = experiment: electron transport: ascorbate-TMPD oxidase of mitochondrial inner membranes; format: biochemical; conditions: for effect of treatment on ascorbate-TMPD oxidase, in words: at comparable levels of amidination
Description: as §2

[4] = system: inner membrane ATPase (adenosine triphosphatase); experiment: inner membrane ATPase activity; format: biochemical; conditions: at comparable levels of amidination (FIG. 2)
Description: FIG. 2 is a graph illustating the effect of dimethylsuberimidate (DMS) and ethylacetimidate (EA) on inner membrane ATPase (adenosine triphosphatase) activity. Open symbols represent DMS-treated membranes, and closed symbols represent EA-treated membranes.
as §2
In the experiment designated by the closed circles in FIG. 2, membranes were treated with high concentrations of EA to determine the extent of amidination required for complete inhibition of activity. The concentrations of EA required for complete inhibition of activity are considerably in excess of the amount required to inhibit sickling.

succinate oxidase = experiment: electron transport: succinate oxidase of mitochondrial inner membranes; format: biochemical; conditions: for effect of treatment on succinate oxidase, in words: at comparable levels of amidination
Description: as §2

rats = experiment: animal survival after exchange of treated blood; format: in vivo, rat; conditions: 30mM in whole blood
Method: In experiments conducted to determine the effect of monoimidates on animal survival, rats were treated with ethylacetimidate at levels of 30mM in whole blood under conditions similar to the in vitro studies described above. This level fo treatment is at least 30 times higher than required for prevention of sickling in vitro. At least three-fourths of the blood was treated and exchanged.

erythrocytes = experiment: hemolysis following incubation under the conditions of amidination; format: cell-based, human; conditions: after incubation under the conditions of amidination
Method: as §1

in vivo = conditions: ip, intraperitoneal
Description: Each compound was made up in KH buffer (280 Mosm) buffered to pH 7.4 with 5N NaOH. The final volume for each injection was 1 cc in rats in 0.5 cc in mice.

[5] = molecular target: T1, hemoglobin of sickle cells (Homo sapiens, UniProt P68871+P69905, E7V); experiment: hemoglobin-oxygen affinity (P50), sickle cells; format: cell-based; conditions: 1 mM
T1 construct: endogenous in cells; host or cells: sickle erythrocytes (Children's Hospital, Oakland, CA)
Method: as §1
(§3) The oxygen affinity of whole blood (P50) was determined in a tonometer as in B. H. Lubin et al, cited above.
(§4) Since oxyhemoglobin and deoxyhemoglobin differ in quaternary structure and since the structural differences may affect the manner in which imidates react with hemoglobin, amidination was carried out in the presence and absence of oxygen and the effect on oxygen affinity was then examined.

[6] = molecular target: T2, hemoglobin of normal cells (Homo sapiens, UniProt P68871+P69905); experiment: hemoglobin-oxygen affinity (P50), normal cells; format: cell-based; conditions: 1 mM
T2 construct: endogenous in cells; host or cells: normal erythrocytes from healthy volunteers
Method: as §1, §3, §4

## CCCC(=N)OC [methylbutyrimidate, methyl butyrimidate]
Sickle erythrocytes [1]
  prevention of in vitro sickling compared with EA: as effective as EA

## COC(=N)CCCCC(=N)OC [DMA, dimethyl adipimidate]
Sickle erythrocytes [2]
  inhibition of sickling in vitro (literature report): inhibit sickling in vitro

## COC(C)=N [methylacetimidate, methyl acetimidate]
Sickle erythrocytes [1]
  prevention of in vitro sickling compared with EA: as effective as EA
Sickle erythrocytes [3]
  net potassium leak which accompanies sickling: elimination of the net potassium leak

## COC(=N)CCCCCCC(=N)OC [DMS, dimethylsuberimidate, reference compound]
NADH oxidase; 2 mM
  NADH oxidase activity (% control): 58 % control
NADH oxidase; 10 mM
  NADH oxidase activity (% control): 10 % control
NADH oxidase
  effect of treatment on NADH oxidase, in words: markedly inhibited
ascorbate-TMPD oxidase; 2 mM
  Ascorbate-TMPD oxidase activity (% control): 61 % control
ascorbate-TMPD oxidase; 10 mM
  Ascorbate-TMPD oxidase activity (% control): 28 % control
ascorbate-TMPD oxidase
  effect of treatment on ascorbate-TMPD oxidase, in words: markedly inhibited
[4]
  effect of treatment on ATPase activity, in words: markedly inhibited
Succinate oxidase; 2 mM
  Succinate oxidase activity (% control): 62 % control
Succinate oxidase; 10 mM
  Succinate oxidase activity (% control): 22 % control
Succinate oxidase
  effect of treatment on succinate oxidase, in words: markedly inhibited

## CCOC(C)=N [EA, ethyl acetimidate]
NADH oxidase; 4 mM
  NADH oxidase activity (% control): 78 % control
NADH oxidase; 20 mM
  NADH oxidase activity (% control): 56 % control
NADH oxidase
  effect of treatment on NADH oxidase, in words: significantly less sensitive to EA than DMS
ascorbate-TMPD oxidase; 4 mM
  Ascorbate-TMPD oxidase activity (% control): 73 % control
ascorbate-TMPD oxidase; 20 mM
  Ascorbate-TMPD oxidase activity (% control): 64 % control
ascorbate-TMPD oxidase
  effect of treatment on ascorbate-TMPD oxidase, in words: significantly less sensitive to EA than DMS
[4]
  effect of treatment on ATPase activity, in words: significantly less inhibitory
rats; at least three-fourths of the blood treated and exchanged, three experiments
  deleterious effects after exchange of treated blood: no deleterious effects
rats; due to the loss of blood during the transfusion
  hematocrits after treatment: slightly reduced
erythrocytes
  hemolysis: Negligible hemolysis
In vivo; mouse, mice, read-out: LD50 (Lethal dose for 50% of the animals)
  LD50: 950 mg/kg
In vivo; rat, rats
  LD50: 900 mg/kg
[5]; amidinated deoxygenated
  P50: 35.0 mm Hg
[5]; amidinated oxygenated
  P50: 27.0 mm Hg
Sickle erythrocytes [1]; 2-5 mM imidate, in vitro
  inhibition of sickling: nearly complete inhibition
Sickle erythrocytes [1]; Homo sapiens, Erythrocyte, 1 mM imidate, in vitro, read-out: prevention of sickling
  inhibition at 1000 µM: 70 to 80%
Sickle erythrocytes [1]; compared with amidination in the presence of oxygen
  prevention of sickling on renewed deoxygenation of cells amidinated under anoxia: sickling was prevented to the same degree
Sickle erythrocytes [1]; deoxygenation with 3% oxygen or sodium metabisulfite
  effectiveness under hypoxic and anoxic conditions: effective under both hypoxic and anoxic conditions
Sickle erythrocytes [1]; low imidate concentrations (1-2mM)
  inhibition of sickling: approximately 80%
Succinate oxidase; 4 mM
  Succinate oxidase activity (% control): 61 % control
Succinate oxidase; 20 mM
  Succinate oxidase activity (% control): 45 % control
Succinate oxidase
  effect of treatment on succinate oxidase, in words: significantly less sensitive to EA than DMS
[6]; amidinated deoxygenated
  P50: 28.0 mm Hg
[6]; amidinated oxygenated
  P50: 25.0 mm Hg
